Test results reported in PubChem BioAssay (NCI).
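All cell lines were grown in 96-well plates and treated with compound for 48 hours. GI50 is the concentration that inhibits growth by half. At the TGI there is no net growth.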

Experiments:
Experiment in all cases: DTP human tumour cell line panel, 48 h
[1] = test system: TK-10 renal
[2] = test system: MDA-MB-231 breast
[3] = test system: SF-268 CNS
[4] = test system: MCF7 breast
[5] = test system: SF-539 CNS
[6] = test system: SK-MEL-5 melanoma
[7] = test system: NCI/ADR-RES ovarian
[8] = test system: OVCAR-8 ovarian
[9] = test system: HL-60(TB) leukemia
[10] = test system: SK-MEL-2 melanoma
[11] = test system: RXF 393 renal
[12] = test system: MDA-MB-435
[13] = test system: K-562 leukemia
[14] = test system: HCT-116 colon
[15] = test system: SN12C renal
[16] = test system: KM12 colon
[17] = test system: UACC-62 melanoma
[18] = test system: IGROV1 ovarian
[19] = test system: T-47D breast
[20] = test system: RPMI-8226 leukemia
[21] = test system: SW-620 colon
[22] = test system: 786-0 renal
[23] = test system: CCRF-CEM leukemia
[24] = test system: HOP-62 NSCLC
[25] = test system: UACC-257 melanoma
[26] = test system: MOLT-4 leukemia
[27] = test system: BT-549 breast

CCOC(=O)/C=C/C1=C(c2csc3ccccc23)c2ccccc2CC1
GI50 [1]: 16.6 µM
TGI [1]: 61.7 µM
GI50 [2]: 34.9 µM
TGI [2]: > 100 µM
GI50 [3]: 28.2 µM
TGI [3]: 90 µM
GI50 [4]: 66.3 µM
TGI [4]: > 100 µM
GI50 [5]: > 100 µM
TGI [5]: > 100 µM
GI50 [6]: 28.5 µM
TGI [6]: > 100 µM
GI50 [7]: 38.7 µM
TGI [7]: > 100 µM
GI50 [8]: 79 µM
TGI [8]: > 100 µM
GI50 [9]: 32.4 µM
TGI [9]: > 100 µM
GI50 [10]: > 100 µM
TGI [10]: > 100 µM
GI50 [11]: 33.7 µM
TGI [11]: > 100 µM
GI50 [12]: 4.34 µM
TGI [12]: 25.7 µM
GI50 [13]: 23.2 µM
TGI [13]: > 100 µM
GI50 [14]: 24.6 µM
TGI [14]: 70.9 µM
GI50 [15]: 73.7 µM
TGI [15]: > 100 µM
GI50 [16]: 12.7 µM
TGI [16]: 56.4 µM
GI50 [17]: 23.6 µM
TGI [17]: > 100 µM
GI50 [18]: 25.5 µM
TGI [18]: > 100 µM
GI50 [19]: 12.3 µM
TGI [19]: 55.5 µM
GI50 [20]: 22.6 µM
TGI [20]: > 100 µM
GI50 [21]: 31.8 µM
TGI [21]: > 100 µM
GI50 [22]: 57 µM
TGI [22]: > 100 µM
GI50 [23]: 27.9 µM
TGI [23]: > 100 µM
GI50 [24]: 41.6 µM
TGI [24]: > 100 µM
GI50 [25]: 23.4 µM
TGI [25]: 82.6 µM
GI50 [26]: 32.2 µM
TGI [26]: > 100 µM
GI50 [27]: 99.3 µM
